“And” between values parts separate entries of the source, which are not always exact repeats. Identical values can stand only once. Where a SMILES comes first, the peptide text is derived from it.
Legend:
B-cell lymphoma (Ramos) = type: cell-based; conditions: at a concentration higher than 30 μM
Experimental: The T-cell lymphoma (Jurkat) and B-cell lymphoma (Ramos) were cultured using RPMI-1640 medium supplemented with 10% fetal calf serum (FCS), 100 U ml^−1 penicillin and 100 μg ml^−1 streptomycin. An initial cell densities of 5 × 10^3 cells/well was uniformly maintained in a 96 well plate. The B16-F1 melanoma cells were grown in DMEM medium containing 10% FCS, 100 U ml^−1 penicillin and 100 μg ml^−1 streptomycin and 55 μM 2-mercaptoethanol. The cells were trypsinized and plated in a 96-well plate at a density of 5 × 10^3 cells/well. The cells were grown overnight at 37 °C using a 5% CO2 incubator. The cells were treated with different peptide concentration followed by cell proliferation assay. […] Fresh culture medium and cells in medium without peptide were considered as negative and positive controls for viability assay and was monitored at 24, 48 and 72 h. The Cayman MTT cell proliferation assay protocol was followed, and the absorbance were recorded at 570 nm using a microplate reader (PowerWaveHT, BioTek Instruments, USA).

[1] = system: Plasmodium falciparum strain 3D7; assay: microbe, parasite or virus in culture; type: cell-based; conditions: for antimalarial activity (in words): at 10 and 30 μM
Experimental: Plasmodium falciparum strain 3D7 was cultured in RPMI-1640 supplemented with 25 mg/l L-Glutamine; HEPES, NaHCO3; 50 mg/l Hypoxanthin; Gentamicien; 10% human serum; and RBCs at 3% hematocrit in an atmosphere of 5% CO2, 5% O2, and 90% N2 at 37°C as previously described. The Plasmodium lactate dehydrogenase (pLDH) assay was performed to measure the parasitic growth inhibition as described elsewhere[49] with BMAP-28 and its analogues treatment. In brief, malstat reagent was added to a 96-well plate (100 μL in each well). A Plasmodium infected RBC mixture of 20 μL in each well was mixed thoroughly using a plate shaker. And then 10 μL of each 1 mg/ml diaphorase and Nitroblue tetrozolium (NBT) were added to each well. The solution in the 96-well plate was mixed properly until a brown color appears and the absorbance was measured at 650 nm under a plate reader (PowerWaveHT, BioTek Instruments, USA). The hemolytic assay was carried out as described earlier. Briefly, RBCs prepared from fresh blood (Hematocrit ~5%) were incubated for 1 h at 37 °C after addition of test peptides. Relative hemoglobin concentration in supernatants after centrifugation at 2000× g for 5 min was monitored by measuring the absorbance at 540 nm by the plate reader (PowerWaveHT, BioTek Instruments, USA). As positive control, 100% hemolysis was taken from samples in which 2% Triton X-100 was added.

[2] = system: Gram-positive and Gram-negative strains (E. coli BL21, Bacillus subtilis, Staphylococcus epidermis); type: cell-based; conditions: even at one order higher concentration than MIC ~2 μM
Experimental: The Escherichia coli strains BL21 and DH5α were obtained from Novagen and Takara Clontech, respectively. The Bacillus subtilis (3009) and Staphylococcus epidermis (12993) were purchased from NITE Biological Resource Center (NBRC, Japan). The bacterial growth procedures followed in this study were described elsewhere. The mid-log phase microbial growth (~4 × 10^7 cells/mL, 5 μL) was used for growth assay in a 96-well plate (5 replicates) at a variable peptide concentration incubated at 37 °C for 12–48 h.

[3] = not given; remark: listed apart in the source
[4] = not given; remark: listed apart in the source
B16-F1 melanoma cells = assay: MTT cell-viability assay, B16-F1 melanoma; type: cell-based, mouse
Experimental: The T-cell lymphoma (Jurkat) and B-cell lymphoma (Ramos) were cultured using RPMI-1640 medium supplemented with 10% fetal calf serum (FCS), 100 U ml^−1 penicillin and 100 μg ml^−1 streptomycin. An initial cell densities of 5 × 10^3 cells/well was uniformly maintained in a 96 well plate. The B16-F1 melanoma cells were grown in DMEM medium containing 10% FCS, 100 U ml^−1 penicillin and 100 μg ml^−1 streptomycin and 55 μM 2-mercaptoethanol. The cells were trypsinized and plated in a 96-well plate at a density of 5 × 10^3 cells/well. The cells were grown overnight at 37 °C using a 5% CO2 incubator. The cells were treated with different peptide concentration followed by cell proliferation assay. The MTT assay kit (Cayman chemicals, USA) was used to measure the cell viability at a peptide concentration varying from 2 to 15 μM (in triplicate). Fresh culture medium and cells in medium without peptide were considered as negative and positive controls for viability assay and was monitored at 24, 48 and 72 h. The Cayman MTT cell proliferation assay protocol was followed, and the absorbance were recorded at 570 nm using a microplate reader (PowerWaveHT, BioTek Instruments, USA).

Row | SMILES | anticancer activity (in words) (B-cell lymphoma (Ramos)) | antimalarial activity (in words) [1] | antimicrobial activity (in words) [2] | other results
1 | CC[C@H](C)[C@H](NC(=O)[C@H](CCCCN)NC(=O)[C@H](CCCNC(=N)N)NC(=O)CN)C(=O)N[C@@H](CC(C)C)C(=O)N[C@@H](CCCNC(=N)N)C(=O)N[C@@H](C)C(=O)N[C@@H](Cc1c[nH]c2ccccc12)C(=O)N[C@@H](CCCCN)C(=O)N[C@@H](CCCCN)C(=O)N[C@@H](Cc1ccc(O)cc1)C(=O)NCC(N)=O [Syn3] (H-GRKILRAWKKYG-NH2; N-terminus assumed) | loss-of activity | very low potentiality | loss of activity | –
2 | CC(C)C[C@H](NC(=O)CNC(=O)CN)C(=O)N[C@@H](CCCNC(=N)N)C(=O)N[C@@H](CO)C(=O)N[C@@H](CC(C)C)C(=O)NCC(=O)N[C@@H](CCCNC(=N)N)C(=O)N[C@@H](CCCCN)C(=O)N[C@@H](C)C(=O)N[C@@H](C)C(=O)N[C@@H](CCCNC(=N)N)C(=O)N[C@@H](C)C(=O)N[C@@H](Cc1c[nH]c2ccccc12)C(=O)N[C@@H](CCCCN)C(=O)N[C@@H](CCCCN)C(=O)N[C@@H](Cc1ccc(O)cc1)C(=O)NCC(N)=O [Syn2] (H-GGLRSLGRKAARAWKKYG-NH2; N-terminus assumed) | loss-of activity | very low potentiality | loss of activity | –
3 | CC[C@H](C)[C@H](NC(=O)[C@H](CCCNC(=N)N)NC(=O)[C@@H](NC(=O)[C@@H](NC(=O)[C@@H]1CCCN1C(=O)[C@@H](NC(=O)[C@@H](NC(=O)[C@@H](NC(=O)[C@@H]1CCCN1C(=O)CNC(=O)[C@H](Cc1ccc(O)cc1)NC(=O)[C@H](CCCCN)NC(=O)[C@H](CCCCN)NC(=O)[C@H](Cc1c[nH]c2ccccc12)NC(=O)[C@H](C)NC(=O)[C@H](CCCNC(=N)N)NC(=O)[C@H](CC(C)C)NC(=O)[C@@H](NC(=O)[C@H](CCCCN)NC(=O)[C@H](CCCNC(=N)N)NC(=O)CNC(=O)[C@H](CC(C)C)NC(=O)[C@H](CO)NC(=O)[C@H](CCCNC(=N)N)NC(=O)[C@H](CC(C)C)NC(=O)CNC(=O)CN)[C@@H](C)CC)[C@@H](C)CC)[C@@H](C)CC)C(C)C)[C@@H](C)CC)[C@@H](C)CC)C(=O)NCC(=O)O (H-GGLRSLGRKILRAWKKYGPIIVPIIRIG-OH) | – | – | – | α content: 11.1% and 11.9%; β-sheet content [3]: 7.1% and 25.3% and 7.5%; β content [4]: 14.3% and 21.5%
4 | CC[C@H](C)[C@H](NC(=O)[C@H](CCCCN)NC(=O)[C@H](CCCNC(=N)N)NC(=O)CNC(=O)[C@H](CC(C)C)NC(=O)[C@H](CO)NC(=O)[C@H](CCCNC(=N)N)NC(=O)[C@H](CC(C)C)NC(=O)CNC(=O)CN)C(=O)N[C@@H](CC(C)C)C(=O)N[C@@H](CCCNC(=N)N)C(=O)N[C@@H](C)C(=O)N[C@@H](Cc1c[nH]c2ccccc12)C(=O)N[C@@H](CCCCN)C(=O)N[C@@H](CCCCN)C(=O)N[C@@H](Cc1ccc(O)cc1)C(=O)NCC(N)=O [BMAP-28_1–18] (H-GGLRSLGRKILRAWKKYG-NH2; N-terminus assumed) | – | – | – | concentration found to be active (B16-F1 melanoma cells): ~ 30 μM; anticancer activity (in words) (B16-F1 melanoma cells; 10 μM): fairly low anticancer activity
5 | C[C@@H]1CC[C@H]2[C@@H](C)C(=O)O[C@@H]3O[C@@]4(C)CC[C@@H]1[C@]32OO4 [Art, artemisinin, reference compound] | – | – | – | inhibition at 5 µM ([1]; Plasmodium falciparum, 3D7, 5 μM, positive control, pLDH assay, read-out: growth inhibition (%) of P. falciparum): 100%

From article PMC5359555, “Mechanistic and structural basis of bioengineered bovine Cathelicidin-5 with optimized therapeutic activity” (Scientific Reports, 2017)
